In patent US10550094B2, “Compounds having antioxidant activity against free radicals and anti-inflammatory activity, and corresponding pharmaceutical or cosmetic compositions for skin care” (GIULIANI S.P.A., priority 2015, dated 2020):

Experiment: HORAC Hydroxyl radical antioxidant capacity assay
Text: HORAC Assay: Hydroxyl Antioxidant Capacity In Vitro
The commercial kit “Oxiselect Hydroxyl Radical Antioxidant Capacity (HORAC) activity assay” (Cell Biolabs).
The HORAC assay esxpresses the compound antiradical capacity towards the hydroxyl radical OH′ and is based on the oxidation of a fluorescent probe by hydroxyl radicals through a hydrogen transfer process (HAT). Hydroxyl radicals are produced by a radical initiator hydroxyl and by Fenton's reagent, which quenches the fluorescent probe over time. The antioxidants present in the sample block the oxidation by the hydroxyl radical of the fluorescent probe until the antioxidant activity in the sample runs out. The remaining hydroxyl radicals destroy the fluorescence of the fluorescent probe. The antioxidant capacity of the sample is related to the fluorescence decay curve, which usually is represented as the area under the curve (AUC). The AUC is used to quantify the total antioxidant activity of the hydroxyl radical in a sample and is compared to the curve of an antioxidant standard.
The compounds of the invention were tested at the following concentrations: 13.5 μM; 27 μM, 13.5 mM; 27 mM.
For comparison purposes, also samples of the compound monofurfurylidene-2.4-sorbitol defined below by the acronym ARGB11, were in this case tested under the same two concentrations, as a reference compound according to EP0345362 mentioned above as the background art of substances with free radical inhibition activity.

## OC[C@@H](O)[C@H]1OC(c2ccco2)O[C@@H](CO)[C@H]1O (stereo partly shown) [ARGB11, monofurfurylidene-2.4-sorbitol, reference compound]
13.5 μM
  HORAC (Hydroxyl Radical Antioxidant Capacity): 31.04 μMole GAE/L
27 μM
  HORAC (Hydroxyl Radical Antioxidant Capacity): 40.110 μMole GAE/L
13.5 mM
  HORAC (Hydroxyl Radical Antioxidant Capacity): 308.497 μMole GAE/L
27 mM
  HORAC (Hydroxyl Radical Antioxidant Capacity): 408.795 μMole GAE/L
